# “Also recorded” adds a separate entry of the source. Like-named read-outs stand apart in the source and are kept apart here. Marks after values point to notes of the source that are not given here.
# Legend:
# [1] = system: lewis lung cancer; assay: Anti-artificial metastasis on Lewis lung cancer in mice (intravenous inoculation); assay type: in vivo, C57Bl/6 mice
# Method: The suspension (0.2 mL/mice, 3×10^5 tumor cell) was inoculated intravenously into the tails of fifty C57Bl/6 mice. […] The tumors, spleen and lung were removed and weighed.
# [2] = system: Human lung cancer H460
# Text: Through cell culture in vitro, the tumor was inoculated on nude mice, the tumor grew and passaged for the experiment use. • Animals: BALB/c nude mice, ♀, 4˜5 weeks old, were obtained from the Experimental Lab, Chinese Academy of Medical Science, Certificate NO. […] Experiment Method:
# The tumor-bearing mice with good tumor growth and good general physical condition were selected and sacrificed. Tumor was isolated in a sterile condition and cut into fragments (diameter for about 2-3 mm) by surgical knife. The fragments were then hypodermically inoculated in posterior axillary of nude mice by means of a trocar.
# After the tumors grew naturally for eight days, the average volume of tumors reaches 130 mm^3. The length and width of tumor was measured using vernier calipers, and divided into groups by the tumor volume.
# The mice were divided into five groups for observation, each groups had eight mice. […] Respective drug was administrated for each group from the grouping day.
# The experiment was terminated 24 hours after the last administration.
# During the experimentation, the tumors sizes (length and width) and body weights of mice were measured once every three days. The tumor volume (TV) and relative tumor volume (RTV) were calculated according to the method for references, and the tumor volume growth tendency chart was plotted.
# At the end of the experiment, the mice were sacrificed. Tumors were removed and weighed, and the inhibition rate of the tumor growth by drugs was calculated. Statistical significance of the tumor weight, tumor volume and RTV level were evaluated by t-test.
# [formula] • (C, average tumor weight of control group; T, average tumor weight of administrated group) • Tumor Volume (TV)=length×width^2/2. • Relative Tumor Volume (RTV) formula: Vt/Vo • (Vo is the volume of TV at the beginning of the grouping, and Vt is the volume of TV at measure time) • Anti-tumor activities were evaluated by Tumor Relative proliferation Rate T/C (%)
# [formula] • Therapeutic effect evaluation standard: T/C (%)>40, was judged as invalid; • T/C (%)≦40, and through statistical evaluation P<0.05, was judged as valid.
# [3] = system: lewis lung cancer; conditions: 10 mg/kg i.p. once daily
# Method: C57Bl/6 mice with lewis lung cancer were sacrificed and the tumor was removed. The tumor cell suspension (5×10^6 cell/mL) was prepared in a sterile condition. The suspension (0.2 mL/mice, 1×10^6 tumor cell) was inoculated subcutaneously into the axillary of 24 C57Bl/6 mice. […] From the 7th day after the implantation, the long diameter and short diameter of tumor was measured every 2 days. Tumor volume was calculated by the formula (½)×long diameter×short diameter^2. Drug was withdrawn on the eighteenth day after the implantation. All mice were then sacrificed and the body weight was measured. The tumors, spleen and lung were removed and weighed. The lungs were fixed in Bouin's fixative for 24 h. The numbers of lung metastasis nodule were counted, and the statistics was evaluated by Mann-Whitney U test.
# [4] = system: clear Human ovarian cell cancer ES-2; assay: Xenograft tumor nude mice screening, ES-2; assay type: in vivo, BALB/c nu mice; conditions: 30 mg/kg i.p., 10~12 times
# Method: (§1) Certificate NO. SCXK (BeiJing) 2005-0013. • Cell lines: The tumor cell lines were passaged and cultured by our Lab, some of them was obtained from ATCC. • The tumor cell lines included: Human breast cancer MX-1 and MCF-7. • Human ovarian cancer A2780, and clear Human ovarian cell cancer ES-2, • Human lung cancer H1975 and A549. Experiment Method: • 1. […] The administration dose and treatment progress was determined based from the preliminary experiments, which had solid effects and the shortest treatment period—the dose of 30 mg/kg/day, and the administration duration time of every lot experiment was not more than 12 days.
# [5] = system: Human lung cancer A549; assay: Xenograft tumor nude mice screening, A549; assay type: in vivo, BALB/c nu mice
# Method: as §1
# [6] = system: Human breast cancer MCF-7; assay: Xenograft tumor nude mice screening, MCF-7; assay type: in vivo, BALB/c nu mice
# Method: as §1
# [7] = system: 60 human tumor cell lines; assay: NCI screening of antitumor activity in vitro in 60 human tumor cell lines; assay type: cell-based
# Text: The experimental results refer to FIGS. 1-12.
# [8] = system: Human breast cancer MX-1; assay: Xenograft tumor nude mice screening, MX-1; assay type: in vivo, BALB/c nu mice; conditions: 30 mg/kg i.p., 10~12 times
# Method: as §1
# [9] = system: Mice breast cancer cell line (4T1, ATCC CRL2539)
# Method: Mice breast cancer cell line (4T1, ATCC CRL2539) was a generous gift from Prof. Wei Liang of the Institute of biophysics, Chinese Academy of Sciences. The cell was cultured in the 1640 medium (Gibco) containing 10% fetal bovine serum (FBS), 1% glutamine and 1% penicillin.
# 4T1 cells in logarithmic phase were collected and the concentration was adjusted to 2×10^6/mL. 4T1 tumors were introduced in female BALB/c mice by injecting subcutaneously into the fourth fat pad area of the right abdominal mammary gland with the dose of 2×10^5/0.1 mL. […] From the 9th day after implantation, tumor growth was measured every 2 days with vernier calipers for determining the long diameter and short diameter of tumor. Tumor volume was calculated by the formula (½)×long diameter×short diameter^2. Drug was withdrawn on the twenty-eight days after the implantation, all mice were then sacrificed and the body weight were measured. The tumors, spleen and lung were removed and weighed. The lungs were fixed in Bouin's fixative for 24 h. The numbers of lung metastasis nodule were counted, the statistics was evaluated using Mann-Whitney U test.
# [10] = system: Human ovarian cancer A2780; assay: Xenograft tumor nude mice screening, A2780; assay type: in vivo, BALB/c nu mice; conditions: 30 mg/kg i.p., 10~12 times
# Method: as §1
# [11] = system: Human lung cancer H1975; assay: Xenograft tumor nude mice screening, H1975; assay type: in vivo, BALB/c nu mice; conditions: 30 mg/kg × 12, i.p.
# Method: as §1
compound,measurement,setting,value
CC(=O)O[C@H]1C(=O)[C@@]2(C)[C@H]([C@H](OC(=O)c3ccccc3)[C@]3(O)C[C@H](OC(=O)[C@H](OC(=O)CCC(=O)NCCCCC(NC(=O)CC[C@H](NC(=O)C(C)NC(=O)/C=C/c4ccc(Cl)cc4)C(N)=O)C(N)=O)[C@@H](NC(=O)c4ccccc4)c4ccccc4)C(C)=C1C3(C)C)[C@]1(OC(C)=O)CO[C@@H]1C[C@@H]2O (some centres unmarked) [MTC-220],Body weight,[1]; 2.5 mg/kg i.p.,19.0 ± 1.9 g
same,Lung weight,[1]; 2.5 mg/kg i.p.,334 ± 217 mg
same,Body weight,[1]; 5 mg/kg i.p.,18.4 ± 2.3 g
same,Lung weight,[1]; 5 mg/kg i.p.,492 ± 353 mg
same,Lung weight,[1]; 10 mg/kg i.p.,393 ± 326 mg
same,Lung metastasis nodule number compared to vehicle control (in words),"[1]; 2.5, 5, 10 mg/kg, dose dependent",significantly decreased
same,Body weight Beginning,"[2]; 5 mg/kg × 25, i.p.",18.0 ± 0.95 g
same,Body weight End,"[2]; 5 mg/kg × 25, i.p.",21.9 ± 1.10 g
same,RTV,"[2]; 5 mg/kg × 25, i.p.",32.0 ± 8.27
same,T/C,"[2]; 5 mg/kg × 25, i.p.",96.2%
same,TGI,"[2]; 5 mg/kg × 25, i.p.",2.15%
same,Tumor volume Beginning,"[2]; 5 mg/kg × 25, i.p.",125 ± 36.8 mm^3
same,Tumor volume End,"[2]; 5 mg/kg × 25, i.p.",3737 ± 591.0 mm^3
same,Tumor weight,"[2]; 5 mg/kg × 25, i.p.",2.91 ± 0.695 g
same,Growth rate of tumor volume compared to negative control,"[2]; 5 mg/kg, 25 days successive administration",not significantly different
same,Body weight Beginning,"[2]; 10 mg/kg × 25, i.p.",18.2 ± 0.70 g
same,Body weight End,"[2]; 10 mg/kg × 25, i.p.",21.4 ± 1.15 g
same,RTV,"[2]; 10 mg/kg × 25, i.p.",27.7 ± 6.81
same,T/C,"[2]; 10 mg/kg × 25, i.p.",83.1%
same,TGI,"[2]; 10 mg/kg × 25, i.p.",17.3%
same,Tumor volume Beginning,"[2]; 10 mg/kg × 25, i.p.",125 ± 43.0 mm^3
same,Tumor volume End,"[2]; 10 mg/kg × 25, i.p.",3274 ± 797.0 mm^3
same,Tumor weight,"[2]; 10 mg/kg × 25, i.p.",2.46 ± 0.624 g
same,Tumor volume inhibition,"[2]; 10 mg/kg, end of the experiment",18.8%
same,Body weight Beginning,"[2]; 20 mg/kg × 25, i.p.",17.8 ± 1.10 g
same,Body weight End,"[2]; 20 mg/kg × 25, i.p.",18.9 ± 2.49 g
same,RTV,"[2]; 20 mg/kg × 25, i.p.",16.7 ± 9.93
same,T/C,"[2]; 20 mg/kg × 25, i.p.",50.1%
same,TGI,"[2]; 20 mg/kg × 25, i.p.",52.9%
same,Tumor volume Beginning,"[2]; 20 mg/kg × 25, i.p.",123 ± 44.6 mm^3
same,Tumor volume End,"[2]; 20 mg/kg × 25, i.p.",1963 ± 641.9 mm^3
same,Tumor weight,"[2]; 20 mg/kg × 25, i.p.",1.40 ± 0.466 g
same,Lung weight,[3],152 ± 37 mg
same,Toxic and side effect,[3],no toxic and side effect
same,Inhibition of tumor growth (in words),[4],"at certain degree, but didn't attain the valid standard"
same,Body weight Beginning,"[5]; 30 mg/kg × 12, i.p.",25.2 ± 1.31 g
same,Body weight End,"[5]; 30 mg/kg × 12, i.p.",26.3 ± 1.51 g
same,RTV,"[5]; 30 mg/kg × 12, i.p.",0.67 ± 0.411
same,Tumor volume Beginning,"[5]; 30 mg/kg × 12, i.p.",95 ± 27.7 mm^3
same,Tumor volume End,"[5]; 30 mg/kg × 12, i.p.",74 ± 55.2 mm^3
same,Tumor weight,"[5]; 30 mg/kg × 12, i.p.",0.062 ± 0.041 g
same,Death,"[5]; 30 mg/kg/day, after drug withdrawal",one mouse died one week after drug withdrawal
same,Tumor observation (in words),"[5]; 30 mg/kg/day, during the administration","became smaller and smaller, but didn't disappear"
same,Body weight Beginning,"[6]; 30 mg/kg × 12, i.p.",20.8 ± 1.14 g
same,Body weight End,"[6]; 30 mg/kg × 12, i.p.",23.3 ± 1.22 g
same,RTV,"[6]; 30 mg/kg × 12, i.p.",0**
same,T/C,"[6]; 30 mg/kg × 12, i.p.",0%
same,TGI,"[6]; 30 mg/kg × 12, i.p.",100%
same,Tumor volume Beginning,"[6]; 30 mg/kg × 12, i.p.",142 ± 73.5 mm^3
same,Tumor volume End,"[6]; 30 mg/kg × 12, i.p.",0 mm^3
same,Tumor weight,"[6]; 30 mg/kg × 12, i.p.",0** g
same,Tumor observation (in words),"[6]; 30 mg/kg/day, 10 administrations, then withdrawal",disappeared one after another; also recorded: disappeared after successive administration for 10 times
same,50% growth inhibition (GI50) activity,[7],in the same magnitude range as paclitaxel
same,Inhibition of tumor growth (in words),[8],weak
same,Lung weight,[9]; 2.5 mg/kg i.p. once daily,153 ± 18 mg
same,Lung weight,[9]; 5.0 mg/kg i.p. once daily,160 ± 15 mg
same,Toxic and side effects,"[9]; 2.5, 5, 10 mg/kg i.p. once daily",no toxic and side effects
same,Lung metastasis nodule numbers compared to vehicle control (in words),"[9]; 2.5, 5, 10 mg/kg, p<0.01, dose dependent",significantly decreased
same,Inhibition of tumor growth (in words),[10],"at certain degree, but didn't attain the valid standard"
same,Body weight Beginning,[11],24.1 ± 1.20 g
same,Body weight End,[11],26.6 ± 0.76 g
same,RTV,[11],0.66 ± 0.464
same,Tumor volume Beginning,[11],135 ± 50.6 mm^3
same,Tumor volume End,[11],127 ± 106.1 mm^3
same,Tumor weight,[11],0.13 ± 0.103 g

# Reference: patent US9085605B2, “Chemical synthesis and anti-tumor and anti-metastatic effects of dual functional conjugate” (Shenzhen Salubris Pharmaceuticals Co., Ltd., priority 2010, dated 2015)
